The values below come from US11490618B2, “Preservation compositions” (Conopco, Inc., priority 2018, dated 2022).

Experiment [1] deals with Pool 1 Gram negative non-fermenting bacteria: Pseudomonas aeruginosa, Pseudomonas putida & Burkholderia cepacia. The experiment in a line: Liquid broth checkerboard assay (MIC, ΣFIC synergy), microorganism Pool 1. The conditions noted are these: tryptic soy broth, 30° C., 24 hours, ΣFIC<1 synergistic. Type of experiment: cell-based. From the text:
(§1) The differing behaviours of inhibitory antimicrobials in isolation and mixtures have been widely explored using the concept of the Fractional Concentration and Fractional Inhibitory Concentration (FIC). See for instance J R W Lambert and R Lambert, J. Appl. Microbiol 95, 734 (2003); T. Jadavji, C G Prober and R Cheung, Antimicrobial Agents and Chemotherapy 26, 91 (1984), and WO 2004/006876. These parameters can be defined as follows: FC(component a)=Concentration of component a tested in the mixture/MIC(component a tested as a single active) FIC(component a)=MIC(component a tested in the mixture)/MIC(component a tested as a single active)
(§2) These relationships can be expressed mathematically by summing the fractional MIC values for all the components present in the mixture to give the “fractional inhibitory index”: ΣFIC=FIC(component 1)+FIC(component 2)
(§3) ΣFIC≥1 corresponds to additive or antagonistic activity
(§4) ΣFIC<1 corresponds to synergistic activity
(§5) Liquid broth assays (MIC and checkerboard) were conducted to identify the minimum concentration(s) of individual and binary combinations of preservation chemicals. A modified methodology to ISO 20776-1:2006 was utilised for the screening as follows. Stock solutions of preservation chemicals and tryptic soy broth were inoculated with 1-5×10^6 microorganisms and incubated at 30° C. for 24 hours, after which optical densities at OD600 nm were measured. […] Preservation chemicals were screened at a concentration range of 0.0156-2%.

In experiment [2] the test system is Pool 2 Gram negative fermenting bacteria: Enterobacter gergoviae & Klebsiella species. Description: Liquid broth checkerboard assay (MIC, ΣFIC synergy), microorganism Pool 2. The format is cell-based. The conditions noted are these: tryptic soy broth, 30° C., 24 hours, ΣFIC<1 synergistic.
Excerpt: as §1, §2, §3, §4, §5

The mark [3] stands for this setting: binary combination with Citric Acid.
Setting [4] is: binary combination with Itaconic acid.

On to `CC(C)=CCC/C(C)=C/CO` [Geraniol], for which the ΣFIC synergy score in experiment [1] (setting [3]) turned out to be 0.75; in experiment [1] (setting [4]) it was 0.31; in experiment [2] (setting [3]) it was 1.06; in experiment [2] (setting [4]) it was 0.5.

On to `C=C(C)[C@@H]1CC=C(CO)CC1` [Perillyl alcohol], for which the ΣFIC synergy score amounted to 0.38 in experiment [1] (setting [3]), 0.38 in experiment [1] (setting [4]), 0.5 in experiment [2] (setting [3]) and 0.38 in experiment [2] (setting [4]).
